Measurements published in patent publication US12679843B2, “Pyrrolopyrimidine amines as complement inhibitors” (BioCryst Pharmaceuticals, Inc., priority 2020, dated 2026).

Target: Factor D (Homo sapiens, UniProt P00746)
Test: Factor D esterolytic assay (Z-Lys-SBzl thioester substrate, DTNB, 405 nm)
Format: biochemical
Conditions: substrate Z-Lys-SBzl 1.29 mM, 100 mM HEPES, 500 mM NaCl, pH 7.5, 10% DMSO, tested a minimum of three times
Outline: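 Run in pH 7.5 HEPES (100 mM) with 500 mM NaCl and 10% DMSO, with compound preincubated at room temperature or not before adding 1.29 mM Z-Lys-SBzl. Free thiol released by Factor D reacts with DTNB, and rate is followed at 405 nm minus 690 nm over 600 s. IC50 derives from rate-based inhibition, minimum three replicates.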

Factor D, sequence (P00746 26-253): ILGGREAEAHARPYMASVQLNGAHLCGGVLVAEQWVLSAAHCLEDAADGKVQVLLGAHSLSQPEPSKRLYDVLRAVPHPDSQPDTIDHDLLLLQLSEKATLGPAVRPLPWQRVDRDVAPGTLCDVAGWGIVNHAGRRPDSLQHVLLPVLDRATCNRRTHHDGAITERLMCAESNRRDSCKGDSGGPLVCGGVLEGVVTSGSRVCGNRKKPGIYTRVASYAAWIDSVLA

IC50 [nM] | SMILES
100 to 1000 | Nc1ncnc2c1c(-c1c[nH]c3ccccc13)cn2CC(=O)N1C[C@H](F)C[C@H]1C(=O)NCc1cccc(Cl)c1F [Compound 126f, (2S,4R)-1-(2-(4-amino-5-(1H-indol-3-yl)-7H-pyrrolo[2,3-d]pyrimidin-7-yl)acetyl)-N-(3-chloro-2-fluorobenzyl)-4-fluoropyrrolidine-2-carboxamide]
< 100 | Nc1ncnc2c1c1ccc(C(=O)O)cc1n2CC(=O)N1[C@@H]2C[C@@H]2C[C@H]1C(=O)Nc1cccc(Br)n1 [Compound 43a, 4-amino-9-(2-((1R,3S,5R)-3-((6-bromopyridin-2-yl)carbamoyl)-2-azabicyclo[3.1.0]hexan-2-yl)-2-oxoethyl)-9H-pyrimido[4,5-b]indole-7-carboxylic acid]
< 100 | Nc1ncnn2c(CC(=O)N3C[C@H](F)C[C@H]3C(=O)NCc3cccc(Cl)c3F)ccc12 [Compound 65a, (2S,4R)-1-(2-(4-aminopyrrolo[2,1-f][1,2,4]triazin-7-yl)acetyl)-N-(3-chloro-2-fluorobenzyl)-4-fluoropyrrolidine-2-carboxamide]
< 100 | COC(=O)c1cc(C)c2c(c1)c1c(N)ncnc1n2CC(=O)N1[C@@H]2C[C@@H]2C[C@H]1C(=O)Nc1cccc(Br)n1 [Compound 217a, methyl 4-amino-9-(2-((1R,3S,5R)-3-((6-bromopyridin-2-yl)carbamoyl)-2-azabicyclo[3.1.0]hexan-2-yl)-2-oxoethyl)-8-methyl-9H-pyrimido[4,5-b]indole-6-carboxylate]
100 to 1000 | NCc1cccc(-c2cn(CC(=O)N3C[C@H](F)C[C@H]3C(=O)NCc3cccc(Cl)c3F)c3ncnc(N)c23)c1 [Compound 115e, (2S,4R)-1-(2-(4-amino-5-(3-(aminomethyl)phenyl)-7H-pyrrolo[2,3-d]pyrimidin-7-yl)acetyl)-N-(3-chloro-2-fluorobenzyl)-4-fluoropyrrolidine-2-carboxamide]
100 to 1000 | Nc1ncnc2c1c1ccccc1n2CC(=O)N1CCC[C@H]1C(=O)Nc1cccc(Br)n1 [Compound 13b, (S)-1-(2-(4-amino-9H-pyrimido[4,5-b]indol-9-yl)acetyl)-N-(6-bromopyridin-2-yl)pyrrolidine-2-carboxamide]
< 100 | COc1cccc2c1c1c(N)ncnc1n2CC(=O)N1[C@H](C(=O)Nc2nc(Br)ccc2C)C[C@@]2(C)C[C@@H]12 [Compound 249a, (1R,3S,5R)-2-(2-(4-amino-5-methoxy-9H-pyrimido[4,5-b]indol-9-yl)acetyl)-N-(6-bromo-3-methylpyridin-2-yl)-5-methyl-2-azabicyclo[3.1.0]hexane-3-carboxamide]
> 1000 | CNc1ncnc2c1cnn2CC(=O)N1[C@@H]2C[C@@H]2C[C@H]1C(=O)Nc1cccc(Br)n1 [Compound 82a, (1R,3S,5R)—N-(6-bromopyridin-2-yl)-2-(2-(4-(methylamino)-1H-pyrazolo[3,4-d]pyrimidin-1-yl)acetyl)-2-azabicyclo[3.1.0]hexane-3-carboxamide]
< 100 | CCc1ccc2c(c1)c1c(N)ncnc1n2CC(=O)N1[C@@H]2C[C@@H]2C[C@H]1C(=O)Nc1cccc(Br)n1 [Compound 187c, (1R,3S,5R)-2-(2-(4-amino-6-ethyl-9H-pyrimido[4,5-b]indol-9-yl)acetyl)-N-(6-bromopyridin-2-yl)-2-azabicyclo[3.1.0]hexane-3-carboxamide]
< 100 | Cc1ccc(Br)nc1NC(=O)[C@@H]1C[C@@]2(C)C[C@H]2N1C(=O)Cn1c2ncnc(N)c2c2cc(C(F)(F)F)cc(C)c21 [Compound 302a, (1R,3S,5R)-2-(2-(4-amino-8-methyl-6-(trifluoromethyl)-9H-pyrimido[4,5-b]indol-9-yl)acetyl)-N-(6-bromo-3-methylpyridin-2-yl)-5-methyl-2-azabicyclo[3.1.0]hexane-3-carboxamide]
< 100 | Nc1ncnc2c1c1cc(-c3ccccc3)ccc1n2CC(=O)N1[C@@H]2C[C@@H]2C[C@H]1C(=O)Nc1cccc(Br)n1 [Compound 62c, (1R,3S,5R)-2-(2-(4-amino-6-phenyl-9H-pyrimido[4,5-b]indol-9-yl)acetyl)-N-(6-bromopyridin-2-yl)-2-azabicyclo[3.1.0]hexane-3-carboxamide]
< 100 | C[C@@]12C[C@@H](C(=O)Nc3cncc(Br)n3)N(C(=O)Cn3c4ccc(C(F)(F)F)cc4c4c(N)ncnc43)[C@@H]1C2 [Compound 261d, (1R,3S,5R)-2-(2-(4-amino-6-(trifluoromethyl)-9H-pyrimido[4,5-b]indol-9-yl)acetyl)-N-(6-bromopyrazin-2-yl)-5-methyl-2-azabicyclo[3.1.0]hexane-3-carboxamide]
< 100 | Cc1ccc(Cl)nc1NC(=O)[C@@H]1C[C@H]2C[C@H]2N1C(=O)Cn1c2ncnc(N)c2c2cc(C(F)(F)F)cc(C)c21 [Compound 318c, (1R,3S,5R)-2-(2-(4-amino-8-methyl-6-(trifluoromethyl)-9H-pyrimido[4,5-b]indol-9-yl)acetyl)-N-(6-chloro-3-methylpyridin-2-yl)-2-azabicyclo[3.1.0]hexane-3-carboxamide]
< 100 | COc1cc2c3c(N)ncnc3n(CC(=O)N3[C@H](C(=O)Nc4cccc(Br)n4)C[C@@]4(C)C[C@@H]34)c2cc1OC [Compound 277a, (1R,3S,5R)-2-(2-(4-amino-6,7-dimethoxy-9H-pyrimido[4,5-b]indol-9-yl)acetyl)-N-(6-bromopyridin-2-yl)-5-methyl-2-azabicyclo[3.1.0]hexane-3-carboxamide]
< 100 | Nc1ncnc2c1c1cc(C(F)(F)F)ccc1n2CC(=O)N1CCS[C@H]1C(=O)Nc1cccc(Br)n1 [Compound 171b, (S)-3-(2-(4-amino-6-(trifluoromethyl)-9H-pyrimido[4,5-b]indol-9-yl)acetyl)-N-(6-bromopyridin-2-yl)thiazolidine-2-carboxamide]
< 100 | Cc1ccc(Br)nc1NC(=O)[C@@H]1C[C@H]2C[C@H]2N1C(=O)Cn1c2ncnc(N)c2c2cc(C(F)(F)F)cc(C)c21 [Compound 303a, (1R,3S,5R)-2-(2-(4-amino-8-methyl-6-(trifluoromethyl)-9H-pyrimido[4,5-b]indol-9-yl)acetyl)-N-(6-bromo-3-methylpyridin-2-yl)-2-azabicyclo[3.1.0]hexane-3-carboxamide]
< 100 | Nc1ncnc2c1c1cc(-c3ccoc3)ccc1n2CC(=O)N1[C@@H]2C[C@@H]2C[C@H]1C(=O)Nc1cccc(Br)n1 [Compound 275c, (1R,3S,5R)-2-(2-(4-amino-6-(furan-3-yl)-9H-pyrimido[4,5-b]indol-9-yl)acetyl)-N-(6-bromopyridin-2-yl)-2-azabicyclo[3.1.0]hexane-3-carboxamide]
< 100 | COc1ccc2c(c1)c1c(N)ncnc1n2CC(=O)N1[C@H](C(=O)Nc2cccc(Br)n2)C[C@@]2(C)C[C@@H]12 [Compound 159a, (1R,3S,5R)-2-(2-(4-amino-6-methoxy-9H-pyrimido[4,5-b]indol-9-yl)acetyl)-N-(6-bromopyridin-2-yl)-5-methyl-2-azabicyclo[3.1.0]hexane-3-carboxamide]
< 100 | COc1ccc2c3c(N)ncnc3n(CC(=O)N3[C@H](C(=O)Nc4nc(Br)ccc4C)C[C@@]4(C)C[C@@H]34)c2c1 [Compound 253a, (1R,3S,5R)-2-(2-(4-amino-7-methoxy-9H-pyrimido[4,5-b]indol-9-yl)acetyl)-N-(6-bromo-3-methylpyridin-2-yl)-5-methyl-2-azabicyclo[3.1.0]hexane-3-carboxamide]
< 100 | Nc1ncnc2c1ncn2CC(=O)N1[C@@H]2C[C@@H]2C[C@H]1C(=O)Nc1cncc(Br)n1 [Compound 112b, (1R,3S,5R)-2-(2-(6-amino-9H-purin-9-yl)acetyl)-N-(6-bromopyrazin-2-yl)-2-azabicyclo[3.1.0]hexane-3-carboxamide]
< 100 | Cc1ccc(Br)nc1NC(=O)[C@@H]1C[C@@H](F)CN1C(=O)Cn1c2ccccc2c2c(N)ncnc21 [Compound 3b, (2S,4R)-1-(2-(4-amino-9H-pyrimido[4,5-b]indol-9-yl)acetyl)-N-(6-bromo-3-methylpyridin-2-yl)-4-fluoropyrrolidine-2-carboxamide]
> 1000 | Nc1ncnc2c1c(-c1ccccc1Cl)cn2CC(=O)N1C[C@H](F)C[C@H]1C(=O)NCc1cccc(Cl)c1F [Compound 136a, (2S,4R)-1-(2-(4-amino-5-(2-chlorophenyl)-7H-pyrrolo[2,3-d]pyrimidin-7-yl)acetyl)-N-(3-chloro-2-fluorobenzyl)-4-fluoropyrrolidine-2-carboxamide]
100 to 1000 | Nc1cn(CC(=O)N2[C@@H]3C[C@@H]3C[C@H]2C(=O)Nc2cccc(Br)n2)c2ncncc12 [Compound 129f, (1R,3S,5R)-2-(2-(5-amino-7H-pyrrolo[2,3-d]pyrimidin-7-yl)acetyl)-N-(6-bromopyridin-2-yl)-2-azabicyclo[3.1.0]hexane-3-carboxamide]
< 100 | COc1cc2c(cc1C(F)(F)F)c1c(N)ncnc1n2CC(=O)N1[C@H](C(=O)Nc2cccc(Br)n2)C[C@@]2(C)C[C@@H]12 [Compound 368a, (1R,3S,5R)-2-(2-(4-amino-7-methoxy-6-(trifluoromethyl)-9H-pyrimido[4,5-b]indol-9-yl)acetyl)-N-(6-bromopyridin-2-yl)-5-methyl-2-azabicyclo[3.1.0]hexane-3-carboxamide]
< 100 | CC(=O)Nc1ccc2c(c1)c1c(N)ncnc1n2CC(=O)N1[C@@H]2C[C@@H]2C[C@H]1C(=O)Nc1cccc(Br)n1 [Compound 168g, (1R,3S,5R)-2-(2-(6-acetamido-4-amino-9H-pyrimido[4,5-b]indol-9-yl)acetyl)-N-(6-bromopyridin-2-yl)-2-azabicyclo[3.1.0]hexane-3-carboxamide]
< 100 | C[C@@]12C[C@@H](C(=O)Nc3cccc(Br)n3)N(C(=O)Cn3c4ccc(OC(F)(F)F)cc4c4c(N)ncnc43)[C@@H]1C2 [Compound 334a, (1R,3S,5R)-2-(2-(4-amino-6-(trifluoromethoxy)-9H-pyrimido[4,5-b]indol-9-yl)acetyl)-N-(6-bromopyridin-2-yl)-5-methyl-2-azabicyclo[3.1.0]hexane-3-carboxamide]
